Data as given in paper PMC5605198, “MELK is not necessary for the proliferation of basal-like breast cancer cells” (eLife, 2017).
Where two headings read alike, the source gives them in different places.

Key:
GSK3A = GSK3A (Homo sapiens, UniProt P49840); experiment: Z’-LYTE enzymatic assay; settings: Z’-LYTE assay at [ATP]=apparent Km; read-out: Biochemical IC50 GSK3A
MKK6 = MKK6 (Homo sapiens, UniProt P52564); experiment: ICKP radiometric kinase assay; format: biochemical; settings: read-out: % AR (% kinase activity remaining)
ERK1 = ERK1 (Homo sapiens, UniProt P27361); experiment: ICKP radiometric kinase assay; format: biochemical; settings: read-out: % AR (% kinase activity remaining)
JNK1 = JNK1 (Homo sapiens, UniProt P45983); experiment: ICKP radiometric kinase assay; format: biochemical; settings: read-out: % AR (% kinase activity remaining)
p38 alpha = p38 alpha (Homo sapiens, UniProt Q16539); experiment: ICKP radiometric kinase assay; format: biochemical; settings: read-out: % AR (% kinase activity remaining)
p38 gamma = p38 gamma (Homo sapiens, UniProt P53778); experiment: ICKP radiometric kinase assay; format: biochemical; settings: read-out: % AR (% kinase activity remaining)
ERK8 = ERK8 (Homo sapiens, UniProt Q8TD08); experiment: ICKP radiometric kinase assay; format: biochemical; settings: read-out: % AR (% kinase activity remaining)
PKB beta = PKB beta (Homo sapiens, UniProt P31751); experiment: ICKP radiometric kinase assay; format: biochemical; settings: read-out: % AR (% kinase activity remaining)
SGK1 = SGK1 (Homo sapiens, UniProt O00141); experiment: ICKP radiometric kinase assay; format: biochemical; settings: read-out: % AR (% kinase activity remaining)
S6K1 = S6K1 (Homo sapiens, UniProt P23443); experiment: ICKP radiometric kinase assay; format: biochemical; settings: read-out: % AR (% kinase activity remaining)
ROCK 2 = ROCK 2 (Homo sapiens, UniProt O75116); experiment: ICKP radiometric kinase assay; format: biochemical; settings: read-out: % AR (% kinase activity remaining)
Chain of ROCK 2 (O75116 whole entry): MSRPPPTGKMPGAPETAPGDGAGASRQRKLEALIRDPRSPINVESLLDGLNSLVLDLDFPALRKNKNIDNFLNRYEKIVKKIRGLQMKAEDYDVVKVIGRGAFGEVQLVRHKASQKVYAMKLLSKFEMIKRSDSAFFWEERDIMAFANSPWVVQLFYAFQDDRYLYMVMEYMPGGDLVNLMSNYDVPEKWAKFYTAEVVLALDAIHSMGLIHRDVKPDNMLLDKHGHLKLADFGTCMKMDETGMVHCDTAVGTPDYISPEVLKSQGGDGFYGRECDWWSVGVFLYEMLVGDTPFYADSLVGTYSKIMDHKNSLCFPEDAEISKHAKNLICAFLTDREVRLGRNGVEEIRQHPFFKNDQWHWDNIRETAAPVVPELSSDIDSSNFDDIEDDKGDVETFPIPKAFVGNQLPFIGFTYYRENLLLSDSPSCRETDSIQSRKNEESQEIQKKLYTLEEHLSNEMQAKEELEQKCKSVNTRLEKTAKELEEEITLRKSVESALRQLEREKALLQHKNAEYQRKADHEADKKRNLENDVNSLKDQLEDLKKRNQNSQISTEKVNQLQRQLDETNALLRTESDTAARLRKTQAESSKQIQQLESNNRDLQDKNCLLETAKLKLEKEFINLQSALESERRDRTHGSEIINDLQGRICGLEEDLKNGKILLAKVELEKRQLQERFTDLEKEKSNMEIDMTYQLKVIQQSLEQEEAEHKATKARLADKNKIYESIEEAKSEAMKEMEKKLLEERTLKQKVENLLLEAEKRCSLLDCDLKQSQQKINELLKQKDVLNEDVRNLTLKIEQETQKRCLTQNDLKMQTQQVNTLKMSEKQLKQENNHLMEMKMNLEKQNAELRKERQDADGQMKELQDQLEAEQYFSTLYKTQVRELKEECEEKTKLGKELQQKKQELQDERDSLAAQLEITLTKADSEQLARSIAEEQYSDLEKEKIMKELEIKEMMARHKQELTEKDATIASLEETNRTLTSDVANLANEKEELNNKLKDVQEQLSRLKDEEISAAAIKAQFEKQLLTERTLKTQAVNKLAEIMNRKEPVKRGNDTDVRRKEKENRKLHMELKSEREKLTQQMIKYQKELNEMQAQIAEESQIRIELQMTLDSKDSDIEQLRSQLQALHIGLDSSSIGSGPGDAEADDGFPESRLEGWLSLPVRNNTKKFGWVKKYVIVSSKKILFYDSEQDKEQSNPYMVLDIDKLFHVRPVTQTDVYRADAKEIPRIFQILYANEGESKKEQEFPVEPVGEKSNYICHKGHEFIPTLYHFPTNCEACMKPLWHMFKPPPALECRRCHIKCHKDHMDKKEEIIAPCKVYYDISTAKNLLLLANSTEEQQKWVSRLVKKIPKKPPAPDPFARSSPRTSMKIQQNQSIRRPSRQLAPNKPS

PKD1 = PKD1 (Homo sapiens, UniProt Q15139); experiment: ICKP radiometric kinase assay; format: biochemical; settings: read-out: % AR (% kinase activity remaining)
STK33 = STK33 (Homo sapiens, UniProt Q9BYT3); experiment: ICKP radiometric kinase assay; format: biochemical; settings: read-out: % AR (% kinase activity remaining)
CAMK1 = CAMK1 (Homo sapiens, UniProt Q14012); experiment: ICKP radiometric kinase assay; format: biochemical; settings: read-out: % AR (% kinase activity remaining)
PHK = experiment: ICKP radiometric kinase assay; format: biochemical; settings: 1 μM
DAPK1 = DAPK1 (Homo sapiens, UniProt P53355); experiment: ICKP radiometric kinase assay; format: biochemical; settings: read-out: % AR (% kinase activity remaining)
Chain of DAPK1 (P53355 whole entry): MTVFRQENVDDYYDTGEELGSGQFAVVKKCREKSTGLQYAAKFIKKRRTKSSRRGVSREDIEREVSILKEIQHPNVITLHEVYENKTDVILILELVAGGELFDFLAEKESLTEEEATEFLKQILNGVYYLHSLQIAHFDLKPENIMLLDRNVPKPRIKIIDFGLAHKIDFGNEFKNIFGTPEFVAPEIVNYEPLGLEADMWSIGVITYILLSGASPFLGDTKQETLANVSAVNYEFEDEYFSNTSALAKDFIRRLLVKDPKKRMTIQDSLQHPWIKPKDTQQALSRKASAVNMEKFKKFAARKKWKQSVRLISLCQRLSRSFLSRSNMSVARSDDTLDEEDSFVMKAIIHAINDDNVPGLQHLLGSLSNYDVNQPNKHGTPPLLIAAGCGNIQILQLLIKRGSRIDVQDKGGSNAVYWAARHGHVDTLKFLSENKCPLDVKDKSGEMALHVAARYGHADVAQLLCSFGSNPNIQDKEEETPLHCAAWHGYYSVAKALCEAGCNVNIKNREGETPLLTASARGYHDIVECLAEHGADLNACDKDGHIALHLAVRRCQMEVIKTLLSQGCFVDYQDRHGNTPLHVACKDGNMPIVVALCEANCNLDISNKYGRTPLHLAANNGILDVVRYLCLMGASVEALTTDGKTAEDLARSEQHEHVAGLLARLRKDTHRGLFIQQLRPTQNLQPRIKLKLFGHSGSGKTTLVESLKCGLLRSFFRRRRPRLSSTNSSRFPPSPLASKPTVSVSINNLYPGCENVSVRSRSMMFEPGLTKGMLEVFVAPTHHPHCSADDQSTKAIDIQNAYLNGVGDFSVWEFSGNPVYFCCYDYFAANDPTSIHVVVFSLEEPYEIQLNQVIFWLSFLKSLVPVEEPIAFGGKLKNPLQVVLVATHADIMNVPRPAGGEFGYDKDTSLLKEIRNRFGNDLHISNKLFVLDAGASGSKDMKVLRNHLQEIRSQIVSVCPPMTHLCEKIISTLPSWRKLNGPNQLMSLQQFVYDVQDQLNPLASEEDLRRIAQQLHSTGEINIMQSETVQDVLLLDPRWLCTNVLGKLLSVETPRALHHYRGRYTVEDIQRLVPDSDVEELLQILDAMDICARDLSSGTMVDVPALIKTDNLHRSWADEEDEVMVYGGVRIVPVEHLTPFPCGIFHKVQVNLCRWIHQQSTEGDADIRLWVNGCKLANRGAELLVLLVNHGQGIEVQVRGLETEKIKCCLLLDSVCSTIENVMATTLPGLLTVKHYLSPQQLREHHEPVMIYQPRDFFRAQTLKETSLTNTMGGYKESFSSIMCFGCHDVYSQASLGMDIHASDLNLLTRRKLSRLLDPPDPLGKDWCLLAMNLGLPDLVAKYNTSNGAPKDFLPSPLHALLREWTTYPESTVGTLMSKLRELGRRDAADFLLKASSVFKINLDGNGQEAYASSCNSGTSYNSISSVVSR

PLK1 = PLK1 (Homo sapiens, UniProt P53350); experiment: ICKP radiometric kinase assay; format: biochemical; settings: read-out: % AR (% kinase activity remaining)
Aurora A = Aurora A (Homo sapiens, UniProt O14965); experiment: ICKP radiometric kinase assay; format: biochemical; settings: read-out: % AR (% kinase activity remaining)
MARK3 = MARK3 (Homo sapiens, UniProt P27448); experiment: ICKP radiometric kinase assay; format: biochemical; settings: read-out: % AR (% kinase activity remaining)
CK2 = CK2 (Homo sapiens, UniProt P68400); experiment: ICKP radiometric kinase assay; format: biochemical; settings: read-out: % AR (% kinase activity remaining)
NEK6 = NEK6 (Homo sapiens, UniProt Q9HC98); experiment: ICKP radiometric kinase assay; format: biochemical; settings: read-out: % AR (% kinase activity remaining)
IKK epsilon = IKK epsilon (Homo sapiens, UniProt Q14164); experiment: ICKP radiometric kinase assay; format: biochemical; settings: read-out: % AR (% kinase activity remaining)
PIM3 = PIM3 (Homo sapiens, UniProt Q86V86); experiment: ICKP radiometric kinase assay; format: biochemical; settings: read-out: % AR (% kinase activity remaining)
EF2K = EF2K (Homo sapiens, UniProt O00418); experiment: ICKP radiometric kinase assay; format: biochemical; settings: read-out: % AR (% kinase activity remaining)
EIF2AK3 = EIF2AK3 (Homo sapiens, UniProt Q9NZJ5); experiment: ICKP radiometric kinase assay; format: biochemical; settings: read-out: % AR (% kinase activity remaining)
PAK4 = PAK4 (Homo sapiens, UniProt O96013); experiment: ICKP radiometric kinase assay; format: biochemical; settings: read-out: % AR (% kinase activity remaining)
PAK5 = PAK5 (Homo sapiens, UniProt Q9P286); experiment: ICKP radiometric kinase assay; format: biochemical; settings: read-out: % AR (% kinase activity remaining)
Chain of PAK5 (Q9P286 whole entry): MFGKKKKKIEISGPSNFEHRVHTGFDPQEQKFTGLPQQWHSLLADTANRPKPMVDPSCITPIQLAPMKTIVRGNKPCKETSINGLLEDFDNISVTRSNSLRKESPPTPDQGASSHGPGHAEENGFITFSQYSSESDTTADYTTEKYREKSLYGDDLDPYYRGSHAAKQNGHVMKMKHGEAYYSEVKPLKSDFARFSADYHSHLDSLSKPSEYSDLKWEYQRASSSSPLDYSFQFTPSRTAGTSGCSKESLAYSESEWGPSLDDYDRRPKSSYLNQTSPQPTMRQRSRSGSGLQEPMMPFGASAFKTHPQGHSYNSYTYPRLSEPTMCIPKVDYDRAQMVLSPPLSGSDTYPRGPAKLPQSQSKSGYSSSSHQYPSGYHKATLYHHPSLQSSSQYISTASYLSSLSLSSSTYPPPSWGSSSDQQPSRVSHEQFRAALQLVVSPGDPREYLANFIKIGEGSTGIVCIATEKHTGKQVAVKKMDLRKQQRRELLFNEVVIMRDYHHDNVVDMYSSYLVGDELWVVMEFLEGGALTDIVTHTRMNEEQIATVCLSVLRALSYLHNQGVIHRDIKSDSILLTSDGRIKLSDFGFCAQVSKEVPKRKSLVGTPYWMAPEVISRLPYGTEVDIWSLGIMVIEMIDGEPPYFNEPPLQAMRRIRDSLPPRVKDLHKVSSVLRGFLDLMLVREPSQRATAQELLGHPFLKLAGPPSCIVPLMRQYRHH

PAK6 = PAK6 (Homo sapiens, UniProt Q9NQU5); experiment: ICKP radiometric kinase assay; format: biochemical; settings: read-out: % AR (% kinase activity remaining)
ASK1 = ASK1 (Homo sapiens, UniProt Q99683); experiment: ICKP radiometric kinase assay; format: biochemical; settings: read-out: % AR (% kinase activity remaining)
RIPK2 = RIPK2 (Homo sapiens, UniProt O43353); experiment: ICKP radiometric kinase assay; format: biochemical; settings: for remaining activity at 1 µM: read-out: % AR (% kinase activity remaining)
Chain of RIPK2 (O43353 whole entry, species assumed): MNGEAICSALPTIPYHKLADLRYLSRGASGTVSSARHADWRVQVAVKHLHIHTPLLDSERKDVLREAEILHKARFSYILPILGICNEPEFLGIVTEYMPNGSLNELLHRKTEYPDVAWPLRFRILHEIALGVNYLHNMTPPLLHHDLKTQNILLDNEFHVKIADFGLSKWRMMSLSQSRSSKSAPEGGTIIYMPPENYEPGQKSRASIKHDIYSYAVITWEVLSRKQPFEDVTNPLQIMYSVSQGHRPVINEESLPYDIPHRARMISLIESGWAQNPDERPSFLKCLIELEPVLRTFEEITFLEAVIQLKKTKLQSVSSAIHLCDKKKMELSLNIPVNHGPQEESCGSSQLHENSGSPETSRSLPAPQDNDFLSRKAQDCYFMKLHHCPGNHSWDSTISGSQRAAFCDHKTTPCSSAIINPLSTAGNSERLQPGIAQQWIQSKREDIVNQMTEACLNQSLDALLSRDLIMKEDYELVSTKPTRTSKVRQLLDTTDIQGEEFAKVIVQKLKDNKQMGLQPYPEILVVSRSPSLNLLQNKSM

TTK = TTK (Homo sapiens, UniProt P33981); experiment: ICKP radiometric kinase assay; format: biochemical; settings: read-out: % AR (% kinase activity remaining)
Chain of TTK (P33981 whole entry): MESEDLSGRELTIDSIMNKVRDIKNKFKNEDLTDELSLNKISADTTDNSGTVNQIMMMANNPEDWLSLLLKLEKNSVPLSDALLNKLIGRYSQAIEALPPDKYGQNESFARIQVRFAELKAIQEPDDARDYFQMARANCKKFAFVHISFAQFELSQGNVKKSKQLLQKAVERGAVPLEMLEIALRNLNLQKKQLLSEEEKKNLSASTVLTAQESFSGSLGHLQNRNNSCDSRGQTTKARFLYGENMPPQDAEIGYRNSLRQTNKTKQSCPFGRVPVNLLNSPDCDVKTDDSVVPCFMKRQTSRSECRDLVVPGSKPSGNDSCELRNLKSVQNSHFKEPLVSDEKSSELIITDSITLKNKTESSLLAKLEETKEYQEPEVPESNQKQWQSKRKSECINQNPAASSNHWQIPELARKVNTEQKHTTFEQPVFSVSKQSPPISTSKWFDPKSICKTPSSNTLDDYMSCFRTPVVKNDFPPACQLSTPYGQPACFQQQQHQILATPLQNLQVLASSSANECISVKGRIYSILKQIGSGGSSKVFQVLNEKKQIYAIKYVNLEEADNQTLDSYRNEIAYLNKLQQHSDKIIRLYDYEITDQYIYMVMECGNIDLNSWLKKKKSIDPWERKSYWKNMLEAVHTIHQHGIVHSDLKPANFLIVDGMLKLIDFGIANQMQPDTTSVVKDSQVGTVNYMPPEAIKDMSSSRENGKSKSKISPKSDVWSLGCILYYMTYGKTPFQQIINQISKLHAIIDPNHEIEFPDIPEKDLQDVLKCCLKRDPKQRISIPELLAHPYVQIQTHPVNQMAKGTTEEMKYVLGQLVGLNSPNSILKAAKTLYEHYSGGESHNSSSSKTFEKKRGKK

MPSK1 = MPSK1 (Homo sapiens, UniProt O75716); experiment: ICKP radiometric kinase assay; format: biochemical; settings: read-out: % AR (% kinase activity remaining)
ULK2 = ULK2 (Homo sapiens, UniProt Q8IYT8); experiment: ICKP radiometric kinase assay; format: biochemical; settings: read-out: % AR (% kinase activity remaining)
TGFBR1 = TGFBR1 (Homo sapiens, UniProt P36897); experiment: ICKP radiometric kinase assay; format: biochemical; settings: read-out: % AR (% kinase activity remaining)
TIE2 = TIE2 (Homo sapiens, UniProt Q02763); experiment: ICKP radiometric kinase assay; format: biochemical; settings: read-out: % AR (% kinase activity remaining)
EPH-B3 = EPH-B3 (Homo sapiens, UniProt P54753); experiment: ICKP radiometric kinase assay; format: biochemical; settings: read-out: % AR (% kinase activity remaining)
FGF-R1 = FGF-R1 (Homo sapiens, UniProt P11362); experiment: ICKP radiometric kinase assay; format: biochemical; settings: read-out: % AR (% kinase activity remaining)
IRR = IRR (Homo sapiens, UniProt P14616); experiment: ICKP radiometric kinase assay; format: biochemical; settings: read-out: % AR (% kinase activity remaining)
DDR2 = DDR2 (Homo sapiens, UniProt Q16832); experiment: ICKP radiometric kinase assay; format: biochemical; settings: read-out: % AR (% kinase activity remaining)
PINK = PINK (Tribolium castaneum, UniProt D6WMX4); experiment: ICKP radiometric kinase assay; settings: read-out: % AR (% kinase activity remaining)
MCF7 = experiment: Cell proliferation assay (CellTiter-Glo); settings: Homo sapiens
[1] = MCF7, 72 h, read-out: 3-day antiproliferative IC50
[2] = MCF7, 168 h, read-out: 7-day antiproliferative IC50

CC(=O)c1cnc2ccc(-c3cc(Cl)c(O)c(Cl)c3)nc2c1N[C@H]1CC[C@H](CN(C)C)CC1 [OTSSP167]
IC50 (GSK3A): 1.6 nM | remaining activity at 1 µM (MKK6): 80% | remaining activity at 1 µM (ERK1): 88% | remaining activity at 1 µM (JNK1): 10% | remaining activity at 1 µM (p38 alpha): 10% | remaining activity at 1 µM (p38 gamma): 12% | remaining activity at 1 µM (ERK8): 1% | remaining activity at 1 µM (PKB beta): 24% | remaining activity at 1 µM (SGK1): 12% | remaining activity at 1 µM (S6K1): 2% | remaining activity at 1 µM (ROCK 2): 49% | remaining activity at 1 µM (PKD1): 6% | remaining activity at 1 µM (STK33): 10% | remaining activity at 1 µM (CAMK1): 15% | % AR (% kinase activity remaining) (PHK): 3% | remaining activity at 1 µM (DAPK1): 1% | remaining activity at 1 µM (PLK1): 3% | remaining activity at 1 µM (Aurora A): 10% | remaining activity at 1 µM (MARK3): 13% | remaining activity at 1 µM (CK2): 1% | remaining activity at 1 µM (NEK6): 92% | remaining activity at 1 µM (IKK epsilon): 2% | remaining activity at 1 µM (PIM3): 1% | remaining activity at 1 µM (EF2K): 114% | remaining activity at 1 µM (EIF2AK3): 7% | remaining activity at 1 µM (PAK4): 9% | remaining activity at 1 µM (PAK5): 19% | remaining activity at 1 µM (PAK6): 29% | remaining activity at 1 µM (ASK1): 7% | remaining activity at 1 µM (RIPK2): 4% | remaining activity at 1 µM (TTK): 3% | remaining activity at 1 µM (MPSK1): 5% | remaining activity at 1 µM (ULK2): 4% | remaining activity at 1 µM (TGFBR1): 16% | remaining activity at 1 µM (TIE2): 3% | remaining activity at 1 µM (EPH-B3): 18% | remaining activity at 1 µM (FGF-R1): 4% | remaining activity at 1 µM (IRR): 6% | remaining activity at 1 µM (DDR2): 0% | remaining activity at 1 µM (PINK): 89% | IC50 (MCF7; [1]): 35 nM | IC50 (MCF7; [2]): 27 nM

CN(C)C[C@H]1CC[C@H](N2C(=O)NCc3cnc4ccc(-c5cc(Cl)c(O)c(Cl)c5)cc4c32)CC1 [HTH-01-091, 9-(3,5-dichloro-4-hydroxyphenyl)-1-(trans-4-((dimethylamino)methyl)cyclohexyl)-3,4-dihydropyrimido[5,4 c]quinolin-2(1H)-one]
IC50 (GSK3A): 1740 nM | remaining activity at 1 µM (MKK6): 99% | remaining activity at 1 µM (ERK1): 119% | remaining activity at 1 µM (JNK1): 97% | remaining activity at 1 µM (p38 alpha): 84% | remaining activity at 1 µM (p38 gamma): 86% | remaining activity at 1 µM (ERK8): 24% | remaining activity at 1 µM (PKB beta): 88% | remaining activity at 1 µM (SGK1): 72% | remaining activity at 1 µM (S6K1): 81% | remaining activity at 1 µM (ROCK 2): 82% | remaining activity at 1 µM (PKD1): 79% | remaining activity at 1 µM (STK33): 26% | remaining activity at 1 µM (CAMK1): 93% | % AR (% kinase activity remaining) (PHK): 74% | remaining activity at 1 µM (DAPK1): 15% | remaining activity at 1 µM (PLK1): 95% | remaining activity at 1 µM (Aurora A): 98% | remaining activity at 1 µM (MARK3): 94% | remaining activity at 1 µM (CK2): 23% | remaining activity at 1 µM (NEK6): 95% | remaining activity at 1 µM (IKK epsilon): 92% | remaining activity at 1 µM (PIM3): 1% | remaining activity at 1 µM (EF2K): 85% | remaining activity at 1 µM (EIF2AK3): 114% | remaining activity at 1 µM (PAK4): 79% | remaining activity at 1 µM (PAK5): 73% | remaining activity at 1 µM (PAK6): 89% | remaining activity at 1 µM (ASK1): 90% | remaining activity at 1 µM (RIPK2): 3% | IC50 (RIPK2; radioactive filter-binding assay provided by the ICKP, read-out: Enzymatic IC50 RIPK2): 42.5 nM | remaining activity at 1 µM (TTK): 53% | remaining activity at 1 µM (MPSK1): 107% | remaining activity at 1 µM (ULK2): 105% | remaining activity at 1 µM (TGFBR1): 102% | remaining activity at 1 µM (TIE2): 71% | remaining activity at 1 µM (EPH-B3): 99% | remaining activity at 1 µM (FGF-R1): 82% | remaining activity at 1 µM (IRR): 79% | remaining activity at 1 µM (DDR2): 44% | remaining activity at 1 µM (PINK): 93% | IC50 (MCF7; [1]): 8750 nM | IC50 (MCF7; [2]): 4130 nM
